EP4112728A1, “METHOD FOR I[…]-BINDING PEPTIDES” (ETH Zürich, priority 2021, dated 2023)

How the values were obtained:
[1] = test system: other clinically relevant Gram negative and positive bacteria; assay: Minimal inhibitory concentration (MIC) against other strains; type: cell-based; conditions: range over the strains tested (FIG.21)
[2] = test system: cspA promoter; assay: Stress response assay, cold shock response (PcspA-gfp) indicating translation inhibition; type: cell-based, E. coli; conditions: GFP under cspA promoter, relative to inactive control HNP-1; one sided t-test, adj. p<0.05
Description: Lastly, the inventors characterized the 50 most growth inhibitory (38 SIMILARS, 12 PARENTS) peptides using different assays (FIG.18). The inventors first used two biosensor constructs, containing the cspA and recA promoters, which upon activation are indicative of translation impairment and DNA damage, respectively. […] Next, the inventors measured membrane damage by quantifying propidium iodide (PI) uptake.
The inventors selected peptide-expressing strains of rank 1-50, previously generated for the monoseptic growth assay. […] Moreover, two plasmids (cloning vector: puA66) containing either the promoter of the gene for recombinase A (PrecA) or for the gene for cold shock protein A (PcspA) were purified from the E. coli Alon collection. Both plasmids contained a transcriptional fusion of their promoter with a downstream gene for green fluorescent protein (gfp), an additional kanamycin resistance cassette and a pSC101 origin of replication. […] The inventors recorded OD and GFP expression (λEx 488 nm/λEm 530nm) after 1.5 h and 4.5 h using a Tecan Infinite 200 PRO (37 °C, 1.5 mm orbital shaking). For each strain, the inventors calculated the specific fluorescence change between the two time points (GFP/OD (4.5 h) - GFP/OD (1.5 h)). Statistical significance was calculated by one sided t-tests, adjusted for multiple testing by Benjamini-Hochberg, using the signal of HNP-13425 APD

## GWFKKAWRKVKHAGRRVLDTAKGVGRHYLNNWLNRYR [ID 4545]
[1]
  MIC: 0.4 to 5.6 µM

## VDKGGYLPRPTPPRPVYR [ID 7122]
[2]
  translational impairment: strongest indication for translational impairment
